Laboratory results published in article PMC11571207, “Stereorandomized Oncocins with Preserved Ribosome Binding and Antibacterial Activity” (Journal of Medicinal Chemistry, 2024).
No end group written: not given here.

How the values were obtained:
A. baumannii ATCC19606 = assay: microbe, parasite or virus in culture; conditions: for MIC A. baumannii, 12.5% MHB / MIC A. baumannii, Full MHB: A. baumannii ATCC19606, 16–20 h at 37 °C; for MIC A. baumannii, 12.5% MHB: 12.5% Müller–Hinton medium; for MIC A. baumannii, Full MHB: full Müller–Hinton medium; for MIC A. baumannii ATCC19606: supplement CSV
Procedure, shortened: (§1)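 Read-out was visible growth after MTT addition, the MIC being the lowest inhibitory peptide concentration. Bacteria grown to log phase in LB were exposed in MH medium to peptide from 64 μg/mL in twofold dilutions for 15-18h at 37°C.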

E. coli W3110 = assay: microbe, parasite or virus in culture; conditions: for MIC E. coli, 12.5% MHB / MIC E. coli, Full MHB: E. coli W3110, 16–20 h at 37 °C, broth microdilution; for MIC E. coli, 12.5% MHB: 12.5% Müller–Hinton medium; for MIC E. coli, Full MHB: full Müller–Hinton medium; for MIC E. coli W3110: supplement CSV
Procedure, shortened: as §1

K. pneumoniae NCTC 418 = assay: microbe, parasite or virus in culture; conditions: for MIC K. pneumoniae, 12.5% MHB / MIC K. pneumoniae, Full MHB: K. pneumoniae NCTC 418, 16–20 h at 37 °C; for MIC K. pneumoniae, 12.5% MHB: 12.5% Müller–Hinton medium; for MIC K. pneumoniae, Full MHB: full Müller–Hinton medium; for MIC K. pneumoniae NCTC418: supplement CSV
Procedure, shortened: as §1

P. aeruginosa PAO1 = assay: microbe, parasite or virus in culture; conditions: for MIC P. aeruginosa, 12.5% MHB / MIC P. aeruginosa, Full MHB: P. aeruginosa PAO1, 16–20 h at 37 °C; for MIC P. aeruginosa, 12.5% MHB: 12.5% Müller–Hinton medium; for MIC P. aeruginosa, Full MHB: full Müller–Hinton medium; for MIC P. aeruginosa PAO1: supplement CSV
Procedure, shortened: as §1

S. aureus COL (MRSA) = assay: microbe, parasite or virus in culture; conditions: for MIC S. aureus, 12.5% MHB / MIC S. aureus, Full MHB: S. aureus COL (MRSA), 16–20 h at 37 °C; for MIC S. aureus, 12.5% MHB: 12.5% Müller–Hinton medium; for MIC S. aureus, Full MHB: full Müller–Hinton medium; for MIC S. aureus COL (MRSA): supplement CSV
Procedure, shortened: as §1

human red blood cells = assay: Hemolysis assay, minimum hemolytic concentration; conditions: for Haemolysis on hRBC, MHC: 2.5% human red blood cells (final) in 10 mM phosphate, 150 mM NaCl, pH 7.4, 25 °C, 4 h, visual inspection; for MHC human red blood cells: supplement CSV

Sequence | MIC A. baumannii, 12.5% MHB (A. baumannii ATCC19606) [µg/mL] | MIC A. baumannii, Full MHB (A. baumannii ATCC19606) [µg/mL] | MIC A. baumannii ATCC19606 (A. baumannii ATCC19606; 12.5% MH pH 7.4) [µg/mL] | MIC A. baumannii ATCC19606 (A. baumannii ATCC19606; full MH pH 7.4) [µg/mL] | MIC E. coli, 12.5% MHB (E. coli W3110) [µg/mL] | MIC E. coli, Full MHB (E. coli W3110) [µg/mL] | MIC E. coli W3110 (E. coli W3110; 12.5% MH pH 7.4) [µg/mL] | MIC E. coli W3110 (E. coli W3110; full MH pH 7.4) [µg/mL] | MIC K. pneumoniae, 12.5% MHB (K. pneumoniae NCTC 418) [µg/mL] | MIC K. pneumoniae, Full MHB (K. pneumoniae NCTC 418) [µg/mL] | MIC K. pneumoniae NCTC418 (K. pneumoniae NCTC 418; 12.5% MH pH 7.4) [µg/mL] | MIC K. pneumoniae NCTC418 (K. pneumoniae NCTC 418; full MH pH 7.4) [µg/mL] | MIC P. aeruginosa, 12.5% MHB (P. aeruginosa PAO1) [µg/mL] | MIC P. aeruginosa, Full MHB (P. aeruginosa PAO1) [µg/mL] | MIC P. aeruginosa PAO1 (P. aeruginosa PAO1; 12.5% MH pH 7.4) [µg/mL] | MIC P. aeruginosa PAO1 (P. aeruginosa PAO1; full MH pH 7.4) [µg/mL] | MIC S. aureus, 12.5% MHB (S. aureus COL (MRSA)) | MIC S. aureus, Full MHB (S. aureus COL (MRSA)) | MIC S. aureus COL (MRSA) (S. aureus COL (MRSA); 12.5% MH pH 7.4) [µg/mL] | MIC S. aureus COL (MRSA) (S. aureus COL (MRSA); full MH pH 7.4) [µg/mL] | further results
VDKPPYLPRPRPPRRIYNR [sr6Cterm-Onc] (VDKPPYLPRPRPPRRIYNR-NH2; also: residues 14-19 stereorandomized (1:1 L/D mixture)) | 4 | 32 | 4 | 32 | 1 | 8 | 1 | 8 | 1 | 4 | 1 | 4 | 4 | 64 | 4 | 64 | > 16 µg/mL | > 64 µg/mL | >16 | >64 | Haemolysis on hRBC, MHC (human red blood cells): >1000 µg/mL; MHC human red blood cells (human red blood cells): >1000 µg/mL
VDKPPYLPRPRPPRRIYNR [sr7Cterm-Onc] (VDKPPYLPRPRPPRRIYNR-NH2; also: residues 13-19 stereorandomized (1:1 L/D mixture)) | 4 | 32 | 4 | 32 | 1 | 8 | 1 | 8 | 1 | 4 | 1 | 4 | 4 | 64 | 4 | 64 | > 16 µg/mL | > 64 µg/mL | >16 | >64 | Haemolysis on hRBC, MHC (human red blood cells): >1000 µg/mL; MHC human red blood cells (human red blood cells): >1000 µg/mL
VDKPPYLPRPRPPRRIYNR [sr10Cterm-Onc] (VDKPPYLPRPRPPRRIYNR-NH2; also: residues 10-19 stereorandomized (1:1 L/D mixture)) | 4 | 64 | 4 | 64 | 4 | 16 | 4 | 16 | 4 | 8 | 4 | 8 | 8 | 64 | 8 | 64 | 32 µg/mL | > 64 µg/mL | 32 | >64 | Haemolysis on hRBC, MHC (human red blood cells): >1000 µg/mL; MHC human red blood cells (human red blood cells): >1000 µg/mL
VDKPPYLPRPRPPRRIYNR [sr11Cterm-Onc] (VDKPPYLPRPRPPRRIYNR-NH2; also: residues 9-19 stereorandomized (1:1 L/D mixture)) | 4 | 32 | 4 | 32 | 4 | 16 | 4 | 16 | 4 | 16 | 4 | 16 | 8 | > 64 | 8 | >64 | >64 / 64 μg/mL | >64 / 64 μg/mL | 64 | >64 | Haemolysis on hRBC, MHC (human red blood cells): >1000 µg/mL; MHC human red blood cells (human red blood cells): >1000 µg/mL
VDKPPYLPRPRPPRRIYNR [sr12Cterm-Onc] (VDKPPYLPRPRPPRRIYNR-NH2; also: residues 8-19 stereorandomized (1:1 L/D mixture)) | 8 | 32 | 8 | 32 | 8 | 16 | 8 | 16 | 8 | 16 | 8 | 16 | 8 | > 64 | 8 | >64 | >64 / 64 μg/mL | >64 / 64 μg/mL | 64 | >64 | Haemolysis on hRBC, MHC (human red blood cells): >1000 µg/mL; MHC human red blood cells (human red blood cells): >1000 µg/mL
VDKPPYLPRPRPPRRIYNR [srP45-Onc] (VDKPPYLPRPRPPRRIYNR-NH2; also: residues 4-5 (Pro-Pro) stereorandomized (1:1 L/D mixture)) | 8 | 64 | 8 | 64 | 4 | 16 | 4 | 16 | 8 | 16 | 8 | 16 | > 16 | > 64 | >16 | >64 | >64 / 64 μg/mL | >64 / 64 μg/mL | 64 | >64 | Haemolysis on hRBC, MHC (human red blood cells): >1000 µg/mL; MHC human red blood cells (human red blood cells): >1000 µg/mL
